Active and inactive are the calls of the source. The calls are words filed in the database; no cut-off is given here.
Tests used:
Rotala indica [1] = assay: Pre-emergence herbicidal activity against Rotala indica assessed as bleaching of stem/leaf parts; type: functional, organism-based
Pontederia vaginalis [2] = assay: Pre-emergence herbicidal activity against Monochoria vaginalis assessed as bleaching of stem/leaf parts; type: functional, organism-based
Rotala indica [3] = assay: Pre-emergence herbicidal activity against Rotala indica at 100 g a.i/ha measured after 14 days; type: functional, organism-based
Pontederia vaginalis [4] = assay: Pre-emergence herbicidal activity against Monochoria vaginalis at 100 g a.i/ha measured after 14 days; type: functional, organism-based
Lindernia procumbens [5] = assay: Post-emergence herbicidal activity against Lindernia procumbens assessed as bleaching of stem/leaf parts; type: functional, organism-based; further: test concentration or dose not given here
Ammannia multiflora [6] = assay: Pre-emergence herbicidal activity against Ammannia multiflora at 500 g a.i/ha measured after 14 days; type: functional, organism-based
Rotala indica [7] = assay: Post-emergence herbicidal activity against Rotala indica assessed as bleaching of stem/leaf parts; type: functional, organism-based
Rotala indica [8] = assay: Pre-emergence herbicidal activity against Rotala indica at 500 g a.i/ha measured after 14 days; type: functional, organism-based
Elatine triandra [9] = assay: Post-emergence herbicidal activity against Elatine triandra assessed as bleaching of stem/leaf parts; type: functional, organism-based; further: test concentration or dose not given here
Lindernia procumbens [10] = assay: Pre-emergence herbicidal activity against Lindernia procumbens at 100 g a.i/ha measured after 14 days; type: functional, organism-based
[11] = test system: Schoenoplectiella juncoides; assay: Pre-emergence herbicidal activity against Schoenoplectiella juncoides at 500 g a.i/ha measured after 14 days; type: functional, organism-based
[12] = test system: Schoenoplectiella juncoides; assay: Post-emergence herbicidal activity against Schoenoplectiella juncoides assessed as bleaching of stem/leaf parts; type: functional, organism-based; further: test concentration or dose not given here
Cyperus difformis [13] = assay: Pre-emergence herbicidal activity against Cyperus difformis at 500 g a.i/ha measured after 14 days; type: functional, organism-based
Cyperus difformis [14] = assay: Post-emergence herbicidal activity against Cyperus difformis assessed as bleaching of stem/leaf parts; type: functional, organism-based; further: test concentration or dose not given here
Pontederia vaginalis [15] = assay: Pre-emergence herbicidal activity against Monochoria vaginalis at 500 g a.i/ha measured after 14 days; type: functional, organism-based
Elatine triandra [16] = assay: Pre-emergence herbicidal activity against Elatine triandra assessed as bleaching of stem/leaf parts; type: functional, organism-based
Cyperus difformis [17] = assay: Pre-emergence herbicidal activity against Cyperus difformis assessed as bleaching of stem/leaf parts; type: functional, organism-based
Pontederia vaginalis [18] = assay: Post-emergence herbicidal activity against Monochoria vaginalis assessed as bleaching of stem/leaf parts; type: functional, organism-based
[19] = test system: Schoenoplectiella juncoides; assay: Pre-emergence herbicidal activity against Schoenoplectiella juncoides at 100 g a.i/ha measured after 14 days; type: functional, organism-based
Lindernia procumbens [20] = assay: Pre-emergence herbicidal activity against Lindernia procumbens assessed as bleaching of stem/leaf parts; type: functional, organism-based
Echinochloa oryzicola [21] = assay: Pre-emergence herbicidal activity against Echinochloa oryzicola at 500 g a.i/ha measured after 14 days; type: functional, organism-based
Echinochloa oryzicola [22] = assay: Pre-emergence herbicidal activity against Echinochloa oryzicola assessed as bleaching of stem/leaf parts; type: functional, organism-based
Ammannia multiflora [23] = assay: Pre-emergence herbicidal activity against Ammannia multiflora assessed as bleaching of stem/leaf parts; type: functional, organism-based
Ammannia multiflora [24] = assay: Pre-emergence herbicidal activity against Ammannia multiflora at 100 g a.i/ha measured after 14 days; type: functional, organism-based
Echinochloa oryzicola [25] = assay: Post-emergence herbicidal activity against Echinochloa oryzicola assessed as bleaching of stem/leaf parts; type: functional, organism-based
[26] = test system: Schoenoplectiella juncoides; assay: Pre-emergence herbicidal activity against Schoenoplectiella juncoides assessed as bleaching of stem/leaf parts; type: functional, organism-based
Elatine triandra [27] = assay: Pre-emergence herbicidal activity against Elatine triandra at 100 g a.i/ha measured after 14 days; type: functional, organism-based
Lindernia procumbens [28] = assay: Pre-emergence herbicidal activity against Lindernia procumbens at 500 g a.i/ha measured after 14 days; type: functional, organism-based
Elatine triandra [29] = assay: Pre-emergence herbicidal activity against Elatine triandra at 500 g a.i/ha measured after 14 days; type: functional, organism-based
Oryza sativa [30] = assay: Phytotoxicity against Oryza sativa cv. Koshihikari (rice) at 500 g a.i/ha measured after 14 days; type: organism-based; details: in vivo, 336 h
Oryza sativa [31] = assay: Phytotoxicity against Oryza sativa cv. Koshihikari (rice) at 100 g a.i/ha measured after 14 days; type: organism-based; details: in vivo, 336 h
Ammannia multiflora [32] = assay: Post-emergence herbicidal activity against Ammannia multiflora assessed as bleaching of stem/leaf parts; type: functional, organism-based
Echinochloa oryzicola [33] = assay: Pre-emergence herbicidal activity against Echinochloa oryzicola at 100 g a.i/ha measured after 14 days; type: functional, organism-based
Cyperus difformis [34] = assay: Pre-emergence herbicidal activity against Cyperus difformis at 100 g a.i/ha measured after 14 days; type: functional, organism-based
Oryza sativa [35] = assay: Phytotoxicity against Oryza sativa cv. Koshihikari (rice) at 33 g a.i/ha measured after 14 days; type: organism-based; details: in vivo, 336 h
Lindernia procumbens [36] = assay: Pre-emergence herbicidal activity against Lindernia procumbens at 33 g a.i/ha measured after 14 days; type: functional, organism-based
Ammannia multiflora [37] = assay: Pre-emergence herbicidal activity against Ammannia multiflora at 33 g a.i/ha measured after 14 days; type: functional, organism-based
[38] = test system: Schoenoplectiella juncoides; assay: Pre-emergence herbicidal activity against Schoenoplectiella juncoides at 33 g a.i/ha measured after 14 days; type: functional, organism-based
Cyperus difformis [39] = assay: Pre-emergence herbicidal activity against Cyperus difformis at 33 g a.i/ha measured after 14 days; type: functional, organism-based
Elatine triandra [40] = assay: Pre-emergence herbicidal activity against Elatine triandra at 33 g a.i/ha measured after 14 days; type: functional, organism-based
Rotala indica [41] = assay: Pre-emergence herbicidal activity against Rotala indica at 33 g a.i/ha measured after 14 days; type: functional, organism-based
Pontederia vaginalis [42] = assay: Pre-emergence herbicidal activity against Monochoria vaginalis at 33 g a.i/ha measured after 14 days; type: functional, organism-based
Echinochloa oryzicola [43] = assay: Pre-emergence herbicidal activity against Echinochloa oryzicola at 33 g a.i/ha measured after 14 days; type: functional, organism-based

CCCONC(=O)c1cn(C)nc1Oc1cccc(C(F)(F)F)c1
Activity (Rotala indica [1]): Active | Activity (Pontederia vaginalis [2]): Active | Activity (Rotala indica [3]): Active | Activity (Pontederia vaginalis [4]): Active | Activity (Lindernia procumbens [5]): Active | Activity (Ammannia multiflora [6]): Active | Activity (Rotala indica [7]): Active | Activity (Rotala indica [8]): Active | Activity (Elatine triandra [9]): Active | Activity (Lindernia procumbens [10]): Active | Activity [11]: Active | Activity [12]: Active | Activity (Cyperus difformis [13]): Active | Activity (Cyperus difformis [14]): Active | Activity (Pontederia vaginalis [15]): Active | Activity (Elatine triandra [16]): Active | Activity (Cyperus difformis [17]): Active | Activity (Pontederia vaginalis [18]): Active | Activity [19]: Active | Activity (Lindernia procumbens [20]): Active | Activity (Echinochloa oryzicola [21]): Active | Activity (Echinochloa oryzicola [22]): Active | Activity (Ammannia multiflora [23]): Active | Activity (Ammannia multiflora [24]): Active | Activity (Echinochloa oryzicola [25]): Active | Activity [26]: Active | Activity (Elatine triandra [27]): Active | Activity (Lindernia procumbens [28]): Active | Activity (Elatine triandra [29]): Active | Activity (Oryza sativa [30]): Toxic | Activity (Oryza sativa [31]): Non-toxic | Activity (Ammannia multiflora [32]): Active | Activity (Echinochloa oryzicola [33]): Active

CCONC(=O)c1cn(C)nc1OCc1cccc(C(F)(F)F)c1
Activity (Rotala indica [1]): Active | Activity (Pontederia vaginalis [2]): Active | Activity (Cyperus difformis [34]): Active | Activity (Rotala indica [3]): Active | Activity (Pontederia vaginalis [4]): Active | Activity (Lindernia procumbens [5]): Active | Activity (Rotala indica [7]): Active | Activity (Elatine triandra [9]): Active | Activity (Lindernia procumbens [10]): Active | Activity (Oryza sativa [35]): Non-toxic | Activity [12]: Active | Activity (Lindernia procumbens [36]): Active | Activity (Cyperus difformis [14]): Active | Activity (Elatine triandra [16]): Active | Activity (Cyperus difformis [17]): Active | Activity (Pontederia vaginalis [18]): Active | Activity [19]: Active | Activity (Lindernia procumbens [20]): Active | Activity (Echinochloa oryzicola [22]): Active | Activity (Ammannia multiflora [23]): Active | Activity (Ammannia multiflora [37]): Active | Activity (Ammannia multiflora [24]): Active | Activity [38]: Active | Activity (Echinochloa oryzicola [25]): Active | Activity [26]: Active | Activity (Elatine triandra [27]): Active | Activity (Cyperus difformis [39]): Active | Activity (Elatine triandra [40]): Active | Activity (Rotala indica [41]): Active | Activity (Pontederia vaginalis [42]): Active | Activity (Echinochloa oryzicola [43]): Active | Activity (Oryza sativa [31]): Non-toxic | Activity (Ammannia multiflora [32]): Active | Activity (Echinochloa oryzicola [33]): Active

Cn1cc(C(=O)Nc2ccccc2)c(OCc2cccc(C(F)(F)F)c2)n1
Activity (Rotala indica [1]): Active | Activity (Pontederia vaginalis [2]): Active | Activity (Cyperus difformis [34]): inactive | Activity (Rotala indica [3]): Active | Activity (Pontederia vaginalis [4]): inactive | Activity (Lindernia procumbens [5]): Active | Activity (Rotala indica [7]): Active | Activity (Elatine triandra [9]): Active | Activity (Lindernia procumbens [10]): Active | Activity [12]: Active | Activity (Cyperus difformis [14]): Active | Activity (Elatine triandra [16]): Active | Activity (Cyperus difformis [17]): Active | Activity (Pontederia vaginalis [18]): Active | Activity [19]: inactive | Activity (Lindernia procumbens [20]): Active | Activity (Echinochloa oryzicola [22]): Active | Activity (Ammannia multiflora [23]): Active | Activity (Ammannia multiflora [24]): Active | Activity (Echinochloa oryzicola [25]): Active | Activity [26]: Active | Activity (Elatine triandra [27]): Active | Activity (Oryza sativa [31]): Non-toxic | Activity (Ammannia multiflora [32]): Active | Activity (Echinochloa oryzicola [33]): Active

From ChEMBL document CHEMBL3046607, “Synthesis and Herbicidal Activity of New 1-Alkyl-3-aryloxypyrazole-4-carboxamide Derivatives” (J Pestic Sci, 2004)
